Read-outs that look alike come from different tables or passages of the source.
What was measured:
α1(V227W)β3 GABAAR = molecular target: T1, α1(V227W)β3 GABAAR (UniProt P28472+P62813, V253W); test: [3H]muscimol binding to HEK cell membranes, α1 intrasubunit site mutant V227W; set-up: species or system rat α1, human β3
T1 construct: expressed in transfected cells; host or cells: HEK293S GnTI- (ATCC CRL-3022), transient
Procedure: (§1) The human α1 and β3 GABAAR subunits were subcloned into pcDNA3 for molecular manipulations and cRNA synthesis. Using QuikChange Site-Directed Mutagenesis Kit (Agilent Technologies, Santa Clara, CA), a FLAG tag was first added to the α1 subunit then an 8xHis tag was added to generate the following His-FLAG tag tandem ([…]), inserted between the fourth and fifth residues of the mature peptide. The α1 and β3 subunits were then transferred into the pcDNA4/TO and pcDNA5/TO vectors (Thermo Fisher Scientific), respectively, for tetracycline inducible expression. Transient expression was done using the GABAAR subunits rat α1FLAG ([Ueno et al., 1996]) and human β3 obtained from Geoffrey White (Neurogen, Branford, CT), each were subcloned into pcDNA3 for molecular manipulations and cRNA synthesis. Point mutations were generated using the QuikChange Site-Directed Mutagenesis Kit (Agilent) and the coding region was fully sequenced prior to use. The cDNAs were linearized with XbaI (NEB Labs, Ipswich, MA), and the cRNAs were generated using T7 mMessage mMachine (Ambion, Austin, TX).
(§2) [^3H]muscimol-binding assays were performed using a previously described method ([Chen et al., 2019]). […] Assay tubes were incubated for 1 hr on ice in the dark. […] Membranes were collected on Whatman/GF-C glass filter papers using a Brandel cell harvester (Gaithersburg, MD). To perform [^3H]muscimol binding isotherms, 100 μg/ml aliquots of membrane protein were incubated with 0.3 nM–1 μM [^3H]muscimol for 1 hr on ice in the dark. The specific activity for [^3H]muscimol concentrations from 30 nM to 1 μM was reduced to 2 Ci/mmol by dilution with nonradioactive muscimol. The membranes were collected on Whatman/GF-B glass filter papers using a vacuum manifold. […] For [^3H]muscimol-binding experiments examining competitive interactions between neurosteroids, the combined neurosteroids (0.3 μM 3α5αP or 3 μM KK148 ±30 μM KK150) or the same volume of dimethyl sulfoxide (DMSO) were added to the membranes which were then incubated with 3 nM [^3H]muscimol on ice for 1 hr. Time courses of neurosteroid [^3H]muscimol binding enhancement were examined by adding 10 µM of neurosteroids (3α5αP, 3β5αP) to membranes that had been fully equilibrated with 3 nM [^3H]muscimol for 1 hr on ice; binding was then measured as a function of time at 1, 3, 10, 30, 60 min. The membranes were collected on Whatman/GF-B glass filter papers using a vacuum manifold. Radioactivity bound to the filters was measured by liquid scintillation spectrometry using Bio-Safe II (Research Products International, Mount Prospect, IL).

α1(Q242L)β3 GABAAR [1] = molecular target: T2, α1(Q242L)β3 GABAAR (UniProt P28472+P62813, Q268L); test: [3H]muscimol binding to HEK cell membranes, intersubunit site mutant; set-up: expressed in transfected cells; host or cells: HEK293S GnTI- (ATCC CRL-3022), transient; species or system rat α1, human β3; conditions: for Emax (% of control) of [3H]muscimol binding: 100% means no effect
Procedure: as §1, §2

α1(V256S)β3 GABAAR [2] = molecular target: T3, α1(V256S)β3 GABAAR (UniProt P28472+P62813, V283S); test: Two-electrode voltage clamp in Xenopus laevis oocytes, V256S mutant; type: cell-based; set-up: expressed in transfected cells; host or cells: Xenopus laevis oocytes injected with cRNA; conditions: for % of desensitization (reduction of steady-state current): 1 mM GABA
Procedure: The wild-type and mutant α1β3 GABAAR were expressed in oocytes from the African clawed frog (Xenopus laevis). Frogs were purchased from Xenopus 1 (Dexter, MI), and housed and cared for in a Washington University Animal Care Facility under the supervision of the Washington University Division of Comparative Medicine. Harvesting of oocytes was conducted under the Guide for the Care and Use of Laboratory Animals as adopted and promulgated by the National Institutes of Health. The animal protocol (No. 20180191) was approved by the Animal Studies Committee of Washington University in St. Louis. The oocytes were injected with a total of 12 ng cRNA. The ratio of cRNAs was 5:1 ratio (α1:β3) to minimize the expression of β3 homomeric receptors. Following injection, the oocytes were incubated in ND96 (96 mM NaCl, 2 mM KCl, 1.8 mM CaCl2, 1 mM MgCl2, 5 mM HEPES; pH 7.4) with supplements (2.5 mM Na pyruvate, 100 U/ml penicillin, 100 μg/ml streptomycin and 50 μg/ml gentamycin) at 16°C for 2 days prior to conducting electrophysiological recordings. The electrophysiological recordings were conducted at room temperature using standard two-electrode voltage clamp. The oocytes were clamped at −60 mV. The chamber (RC-1Z, Warner Instruments, Hamden, CT) was perfused with ND96 at 5–8 ml/min. Solutions were gravity-applied from 30 ml glass syringes with glass luer slips via Teflon tubing. The current responses were amplified with an OC-725C amplifier (Warner Instruments, Hamden, CT), digitized with a Digidata 1200 series digitizer (Molecular Devices), and stored using pClamp (Molecular Devices). Current traces were analyzed with Clampfit (Molecular Devices). […] The stock solution of muscimol was made at 20 mM in ND96 and stored at 4°C. The steroids were dissolved in DMSO at 10–20 mM and stored at room temperature.

α1(N408A/Y411F)β3 GABAAR = test: Two-electrode voltage clamp in Xenopus laevis oocytes, N408A/Y411F mutant; type: cell-based; conditions: 3 μM 3β5αP, 1 mM GABA; α1(N408A/Y411F)β3 vs WT
Procedure: (§3) The wild-type and mutant α1β3 GABAAR were expressed in oocytes from the African clawed frog (Xenopus laevis). Frogs were purchased from Xenopus 1 (Dexter, MI), and housed and cared for in a Washington University Animal Care Facility under the supervision of the Washington University Division of Comparative Medicine. Harvesting of oocytes was conducted under the Guide for the Care and Use of Laboratory Animals as adopted and promulgated by the National Institutes of Health. The animal protocol (No. 20180191) was approved by the Animal Studies Committee of Washington University in St. Louis. The oocytes were injected with a total of 12 ng cRNA. The ratio of cRNAs was 5:1 ratio (α1:β3) to minimize the expression of β3 homomeric receptors. Following injection, the oocytes were incubated in ND96 (96 mM NaCl, 2 mM KCl, 1.8 mM CaCl2, 1 mM MgCl2, 5 mM HEPES; pH 7.4) with supplements (2.5 mM Na pyruvate, 100 U/ml penicillin, 100 μg/ml streptomycin and 50 μg/ml gentamycin) at 16°C for 2 days prior to conducting electrophysiological recordings. The electrophysiological recordings were conducted at room temperature using standard two-electrode voltage clamp. The oocytes were clamped at −60 mV. The chamber (RC-1Z, Warner Instruments, Hamden, CT) was perfused with ND96 at 5–8 ml/min. […] Current traces were analyzed with Clampfit (Molecular Devices). […]

α1(V256S)β3 GABAAR [3] = molecular target: T3, α1(V256S)β3 GABAAR; test: [3H]muscimol binding to HEK cell membranes, desensitization-eliminating mutant; set-up: expressed in transfected cells; host or cells: HEK293S GnTI- (ATCC CRL-3022), transient; species or system rat α1, human β3; conditions: 10 μM neurosteroid; 3 nM [3H]muscimol
Procedure: as §1, with “Point mutations were generated using the QuikChange Site-Directed Mutagenesis Kit (Agilent) and the coding region was fully sequenced prior to use. The cDNAs were linearized with XbaI (NEB Labs, Ipswich, MA), and the cRNAs were generated using T7 mMessage mMachine (Ambion, Austin, TX).” left out
[^3H]muscimol-binding assays were performed using a previously described method ([Chen et al., 2019]). […] Time courses of neurosteroid [^3H]muscimol binding enhancement were examined by adding 10 µM of neurosteroids (3α5αP, 3β5αP) to membranes that had been fully equilibrated with 3 nM [^3H]muscimol for 1 hr on ice; binding was then measured as a function of time at 1, 3, 10, 30, 60 min. […] Radioactivity bound to the filters was measured by liquid scintillation spectrometry using Bio-Safe II (Research Products International, Mount Prospect, IL).

α1(Q242L)β3 GABAAR [4] = molecular target: T2, α1(Q242L)β3 GABAAR; test: Two-electrode voltage clamp in Xenopus laevis oocytes, Q242L mutant; type: cell-based; set-up: expressed in transfected cells; host or cells: Xenopus laevis oocytes injected with cRNA
Procedure: as §3

[5] = molecular target: T4, α1(Q242L)β3(Y284F) GABAAR (UniProt P28472+P62813, Q268L/Y309F); test: Two-electrode voltage clamp in Xenopus laevis oocytes, intersubunit + β3 intrasubunit mutant; type: cell-based; conditions: 3 μM 3α5αP, 1 mM GABA + 40 μM pentobarbital
T4 construct: expressed in transfected cells; host or cells: Xenopus laevis oocytes injected with cRNA
Procedure: as §3

C#CCCO[C@H]1CC[C@H]2[C@@H]3CC[C@H]4CC5(CC[C@]4(C)[C@H]3CC[C@]12C)N=N5 [KK148]
Hill slope for modulation of [3H]muscimol binding (α1(V227W)β3 GABAAR; 3 nM [3H]muscimol): 0.76 ± 0.31 | Emax (% of control) of [3H]muscimol binding (α1(V227W)β3 GABAAR; 3 nM [3H]muscimol, 100% means no effect): **209.2 ± 7.4 % of control | EC50 (α1(V227W)β3 GABAAR; 3 nM [3H]muscimol, read-out: EC50 for modulation of [3H]muscimol binding): 1730 ± 680 nM | Hill slope for modulation of [3H]muscimol binding (α1(Q242L)β3 GABAAR [1]; α1(Q242L)β3, 3 nM [3H]muscimol): 1.24 ± 0.12 | Emax (% of control) of [3H]muscimol binding (α1(Q242L)β3 GABAAR [1]; α1(Q242L)β3, 3 nM [3H]muscimol): 434.5 ± 5.6 % of control | EC50 (α1(Q242L)β3 GABAAR [1]; α1(Q242L)β3, 3 nM [3H]muscimol, read-out: EC50 for modulation of [3H]muscimol binding): 2200 ± 310 nM | % of desensitization (reduction of steady-state current) (α1(V256S)β3 GABAAR [2]): 0%

CC(=O)[C@H]1CC[C@H]2[C@@H]3CC[C@H]4C[C@@H](O)CC[C@]4(C)[C@H]3CC[C@]12C [3β5αP, epi-allopregnanolone]
Prevention of 3β5αP-enhanced desensitization by mutation (α1(N408A/Y411F)β3 GABAAR): ~ 67% | EC50 (α1(Q242L)β3 GABAAR [1]): 270 ± 90 nM | Hill slope for modulation of [3H]muscimol binding (α1(Q242L)β3 GABAAR [1]; α1(Q242L)β3, 3 nM [3H]muscimol): 0.77 ± 0.21 | Emax (% of control) of [3H]muscimol binding (α1(Q242L)β3 GABAAR [1]; α1(Q242L)β3, 3 nM [3H]muscimol): 204.3 ± 4.5 % of control | Enhancement of specific [3H]muscimol binding in α1(V256S)β3 compared with WT (α1(V256S)β3 GABAAR [3]): absent | % of desensitization (reduction of steady-state current) (α1(V256S)β3 GABAAR [2]): completely eliminated | Effect of mutation on 3β5αP-enhanced desensitization (α1(Q242L)β3 GABAAR [4]; 3 μM 3β5αP, 1 mM GABA, α1(Q242L)β3 vs WT): without effect

CC(=O)[C@H]1CC[C@H]2[C@@H]3CC[C@H]4C[C@H](O)CC[C@]4(C)[C@H]3CC[C@]12C [3α5αP, allopregnanolone]
Inhibition of steady-state current, effect of β3 intrasubunit site mutation [5]: markedly reduced | EC50 (α1(Q242L)β3 GABAAR [1]): 2660 nM | Hill slope for modulation of [3H]muscimol binding (α1(Q242L)β3 GABAAR [1]; α1(Q242L)β3, 3 nM [3H]muscimol): 1.16 ± 0.37 | Emax (% of control) of [3H]muscimol binding (α1(Q242L)β3 GABAAR [1]; α1(Q242L)β3, 3 nM [3H]muscimol): **159.8 ± 10.9 % of control | Decrease of enhancement of [3H]muscimol binding by mutation (α1(Q242L)β3 GABAAR [1]; β3(+)–α1(-) intersubunit site mutation vs WT): ~ 80% | Enhancement of specific [3H]muscimol binding in α1(V256S)β3 compared with WT (α1(V256S)β3 GABAAR [3]): unaffected | Inhibitory effect on steady-state current in the V256S mutant (α1(V256S)β3 GABAAR [2]; 3 μM 3α5αP, 1 mM GABA + 40 μM pentobarbital): eliminated | Effect on steady-state current (α1(Q242L)β3 GABAAR [4]; 3 μM 3α5αP, 1 mM GABA + 40 μM pentobarbital, α1(Q242L)β3): small reduction

NCc1cc(=O)[nH]o1 [muscimol]
Bmax of [3H]muscimol binding isotherm (α1(V227W)β3 GABAAR): 11.6 ± 0.4 (P > 0.99 vs. WT) pmol/mg | Kd (α1(V227W)β3 GABAAR; read-out: Kd of [3H]muscimol binding isotherm): 54.1 ± 5.8 nM | Bmax of [3H]muscimol binding isotherm (α1(Q242L)β3 GABAAR [1]; α1(Q242L)β3): 9.9 ± 0.6 (P > 0.99 vs. WT) pmol/mg | Kd (α1(Q242L)β3 GABAAR [1]; α1(Q242L)β3, read-out: Kd of [3H]muscimol binding isotherm): 44.3 ± 4.6 nM

Source: publication PMC7532004, “Site-specific effects of neurosteroids on GABAA receptor activation and desensitization” (eLife, 2020)
